Data: patent publication US12152019B2, “Arylalkyl pyrazole compounds as indoleamine 2,3-dioxygenase inhibitors” (Merck Sharp & Dohme LLC, priority 2018, dated 2024)

Target: IDO1 (Homo sapiens, UniProt P14902)
Assay: IDO1 Human Whole Blood Assay
Format: cell-based
Conditions: LPS and IFNγ 100 ng/mL, overnight (18 h), kynurenine by LC/MS/MS, read-out: Human Whole Blood Potency, IC50
Method: IDO1 Human Whole Blood Assay Compounds to be tested were serially diluted in ten 3-fold steps in DMSO starting from 10 mM. 3 μL of compound dilutions or DMSO alone were then dispensed from the dilution plate into a polypropylene 96-well assay plate containing 97 μL of RPMI using an Echo 555 acoustic liquid handler (Labcyte). LPS and IFNγ was prepared in RPMI to a 10× of final conc. (1000 ng/mL), final concentration is 100 ng/mL. […] 240 μL of blood was transferred to each of the wells of a v-bottom 96 well plate. 30 μL of compound was transferred from intermediate dilution plate, and incubated for 15 min. 30 μL from stimulants was then transferred to blood and mixed thoroughly. Plate was covered with breathable membrane and incubated at 37° C. for overnight (18 h). […] Plasma was diluted with RPMI in 1:1 ratio and proteins were precipitated out with two volume of Acetonitrile. The plates were centrifuged at 4000×G for 60 min. 20 μL of supernatant was carefully transferred to a 384 well plate contain 40 μL of 0.1% formic acid in water and analyzed by LC/MS/MS. LC/MS/MS analyses were performed using Thermo Fisher's LX4-TSQ Quantum Ultra system. This system consists of four Agilent binary high-performance liquid chromatography (HPLC) pumps and a TSQ Quantum Ultra triple quadrupole MS/MS instrument. For each sample, 5 μL were injected onto an Atlantis T3 column (2.1 mm×150 mm, 3 μm particle size) from Waters. The mobile phase gradient pumped at 0.8 mL/min was used to elute the analytes from the column at 25° C. The elution started at 0% B increasing linearly to 25% B at 6.5 min, holding at 25% for 1 min, re-equilibrating to 10 min. Mobile phase A consisted of 0.1% formic acid in water. Mobile phase B consisted of 0.1% of formic acid in acetonitrile. Data was acquired in positive mode using a HESI interface. The operational parameters for the TSQ Quantum Ultra instrument were a spray voltage of 4000 V, capillary temperature of 380° C., vaporizer temperature 400° C., shealth gas 60 arbitrary units, Aux gas 20 arbitrary units, tube lens 85 and collision gas 1.2 mTorr. SRM chromatograms of kynurenine (Q1: 209.2>Q3:94.0) and internal standard (Q1: 215.3>Q3:98.2) were collected for 90 sec. The peak area was integrated by Xcalibur Quan software. […] Compounds were titrated and IC50's were calculated by 4 parameter sigmoidal curve fitting formula.

Chain of IDO1 (P14902 whole entry): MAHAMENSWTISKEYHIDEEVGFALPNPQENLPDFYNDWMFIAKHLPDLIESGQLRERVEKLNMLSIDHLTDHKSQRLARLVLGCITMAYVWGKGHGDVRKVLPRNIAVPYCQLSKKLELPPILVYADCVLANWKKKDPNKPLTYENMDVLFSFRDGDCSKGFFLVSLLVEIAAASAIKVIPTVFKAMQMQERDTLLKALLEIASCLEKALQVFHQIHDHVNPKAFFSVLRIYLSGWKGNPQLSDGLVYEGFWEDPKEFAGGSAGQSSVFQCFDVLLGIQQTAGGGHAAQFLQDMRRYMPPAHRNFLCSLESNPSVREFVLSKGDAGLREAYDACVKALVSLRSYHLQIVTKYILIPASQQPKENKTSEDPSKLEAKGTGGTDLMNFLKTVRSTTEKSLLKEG

| SMILES | IC50 [nM] |
| --- | --- |
| Cc1cccc(N2CCC(C(F)Cn3nc(C(=O)N4C[C@@H](C)O[C@@H](C)C4)c4c3CCC4)CC2)c1C (single isomer, unassigned) [Example 48] | 964 |
| Cc1c(F)ccc(C2CCC(CCn3nc(C(=O)N4CCN(C(=O)CO)CC4)c4c3CCC4)CC2)c1C (single isomer, unassigned) [Example 49, 1-(4-(1-(2-(4-(4-fluoro-2,3-dimethylphenyl)cyclohexyl)ethyl)-1,4,5,6-tetrahydrocyclopenta[c]pyrazole-3-carbonyl)piperazin-1-yl)-2-hydroxyethan-1-one] | 177 |
| Cc1c(F)ccc(C2CCC(CCn3nc(C(=O)N4CCC(F)(CO)CC4)c4c3CCC4)CC2)c1C (single isomer, unassigned) [Example 52, (1-(2-(4-(4-fluoro-2,3-dimethylphenyl)cyclohexyl)ethyl)-1,4,5,6-tetrahydrocyclopenta[c]pyrazol-3-yl)(4-fluoro-4-(hydroxymethyl)piperidin-1-yl)methanone] | 448 |
| Cc1cccc(C2CCC(CCn3nc(C(=O)N4CCC(O)CC4)c4c3CCC4)CC2)c1C (single isomer, unassigned) [Example 95, (1-(2-(4-(2,3-dimethylphenyl)cyclohexyl)ethyl)-1,4,5,6-tetrahydrocyclopenta[c]pyrazol-3-yl)(4-hydroxypiperidin-1-yl)methanone] | 166 |
| Cc1cccc(C2CCC(CCn3nc(C(=O)N4CCC(O)CC4)c4c3CCC4)CC2)c1C (single isomer, unassigned) [Example 96, (1-(2-(4-(2,3-dimethylphenyl)cyclohexyl)ethyl)-1,4,5,6-tetrahydrocyclopenta[c]pyrazol-3-yl)(4-hydroxypiperidin-1-yl)methanone] | 328 |
| Cc1cccc(N2CCC(CCn3nc(C(=O)N4CCC(O)CC4)c4c3CCC4)CC2)c1C [Example 1, (1-(2-(1-(2,3-dimethylphenyl)piperidin-4-yl)ethyl)-1,4,5,6-tetrahydrocyclopenta[c]pyrazol-3-yl)(4-hydroxypiperidin-1-yl)methanone] | 341 |
| Cc1c(F)ccc(N2CCC(CCn3nc(C(=O)N4CCC(F)(CO)CC4)c4c3CCC4)CC2)c1C [Example 8, (1-(2-(1-(4-fluoro-2,3-dimethylphenyl)piperidin-4-yl)ethyl)-1,4,5,6-tetrahydrocyclopenta[c]pyrazol-3-yl)(4-fluoro-4-(hydroxymethyl)piperidin-1-yl)methanone] | 251 |
| Cc1c(F)ccc(N2CCC(CCn3nc(C(=O)N4CCN(C(=O)CO)CC4)c4c3CCC4)CC2)c1C [Example 11, 1-[4-[1-[2-[1-(4-fluoro-2,3-dimethyl-phenyl)piperidin-1-ium-4-yl]ethyl]-5,6-dihydro-4H-cyclopenta[c]pyrazole-3-carbonyl]piperazin-1-yl]-2-hydroxy-ethanone] | 800 |
| CC(=O)NC1CCN(C(=O)c2nn(CCC3CCN(c4ccc(F)c(F)c4C)CC3)c3c2CCCC3)CC1 [Example 18, N-[1-[1-[2-[1-(3,4-difluoro-2-methyl-phenyl)-4-piperidyl]ethyl]-4,5,6,7-tetrahydroindazole-3-carbonyl]-4-piperidyl]acetamide] | 437 |
| CC(=O)NC1CCN(C(=O)c2nn(CCC3CCN(c4cccc(Cl)c4C)CC3)c3c2CCCC3)CC1 [Example 20, N-[1-[1-[2-[1-(3-chloro-2-methyl-phenyl)-4-piperidyl]ethyl]-4,5,6,7-tetrahydroindazole-3-carbonyl]-4-piperidyl]acetamide] | 286 |
| CC(=O)NC1CCN(C(=O)c2nn(CCC3CCN(c4nccc(C(F)(F)F)c4F)CC3)c3c2CCCC3)CC1 [Example 35, N-[1-[1-[2-[1-[3-fluoro-4-(trifluoromethyl)-2-pyridyl]-4-piperidyl]ethyl]-4,5,6,7-tetrahydroindazole-3-carbonyl]-4-piperidyl]acetamide] | 935 |
| Cc1c(Cl)cccc1O[C@H]1CC[C@@H](CCn2nc(C(=O)N3C[C@@H](C)O[C@@H](C)C3)c3c2CCC3)CC1 [Example 53, (1-(2-((1s,4S)-4-(3-chloro-2-methylphenoxy)cyclohexyl)ethyl)-1,4,5,6-tetrahydrocyclopenta[c]pyrazol-3-yl)((2R,6S)-2,6-dimethylmorpholino)methanone] | 822 |
| Cc1ccc(Cl)c(O[C@H]2CC[C@@H](CCn3nc(C(=O)N4CCN(C(=O)CO)CC4)c4c3CCC4)CC2)c1 [Example 57, 1-(4-(1-(2-((1s,4s)-4-(2-chloro-5-methylphenoxy)cyclohexyl)ethyl)-1,4,5,6-tetrahydrocyclopenta[c]pyrazole-3-carbonyl)piperazin-1-yl)-2-hydroxyethan-1-one] | 517 |
| Cc1ccc(Cl)c(O[C@H]2CC[C@@H](CCn3nc(C(=O)N4CCC(F)(CO)CC4)c4c3CCC4)CC2)c1 [Example 58, (1-(2-((1s,4s)-4-(2-chloro-5-methylphenoxy)cyclohexyl)ethyl)-1,4,5,6-tetrahydrocyclopenta[c]pyrazol-3-yl)(4-fluoro-4-(hydroxymethyl)piperidin-1-yl)methanone] | 538 |
| CC(=O)NC1CCN(C(=O)c2nn(CC[C@H]3CC[C@@H](Oc4ccccc4C)CC3)c3c2CCC3)CC1 [Example 61, N-(1-(1-(2-((1s,4s)-4-(2-methylphenoxy)cyclohexyl)ethyl)-1,4,5,6-tetrahydrocyclopenta[c]pyrazole-3-carbonyl)piperidin-4-yl)acetamide] | 30.6 |
| CC(=O)NC1CCN(C(=O)c2nn(CC[C@H]3CC[C@@H](Oc4cnccc4C)CC3)c3c2CCC3)CC1 [Example 64, N-(1-(1-(2-((1s,4s)-4-((4-methylpyridin-3-yl)oxy)cyclohexyl)ethyl)-1,4,5,6-tetrahydrocyclopenta[c]pyrazole-3-carbonyl)piperidin-4-yl)acetamide] | 215 |
| CC(=O)NC1CCN(C(=O)c2nn(CC[C@H]3CC[C@@H](Oc4ccccc4C(F)(F)F)CC3)c3c2CCC3)CC1 [Example 65, N-(1-(1-(2-((1s,4s)-4-(2-(trifluoromethyl)phenoxy)cyclohexyl)ethyl)-1,4,5,6-tetrahydrocyclopenta[c]pyrazole-3-carbonyl)piperidin-4-yl)acetamide] | 130 |
| CC(=O)NC1CCN(C(=O)c2nn(CC[C@H]3CC[C@@H](Oc4nccc(C)c4C#N)CC3)c3c2CCC3)CC1 [Example 66, N-(1-(1-(2-((1s,4s)-4-((3-cyano-4-methylpyridin-2-yl)oxy)cyclohexyl)ethyl)-1,4,5,6-tetrahydrocyclopenta[c]pyrazole-3-carbonyl)piperidin-4-yl)acetamide] | 153 |
| CC(=O)NC1CCN(C(=O)c2nn(CC[C@H]3CC[C@@H](Oc4ccc(C)nc4C)CC3)c3c2CCC3)CC1 [Example 67, N-(1-(1-(2-((1s,4s)-4-((2,6-dimethylpyridin-3-yl)oxy)cyclohexyl)ethyl)-1,4,5,6-tetrahydrocyclopenta[c]pyrazole-3-carbonyl)piperidin-4-yl)acetamide] | 209 |
| CC(=O)NC1CCN(C(=O)c2nn(CC[C@H]3CC[C@@H](Oc4cnc(C)nc4C)CC3)c3c2CCC3)CC1 [Example 68, N-(1-(1-(2-((1s,4s)-4-((2,4-dimethylpyrimidin-5-yl)oxy)cyclohexyl)ethyl)-1,4,5,6-tetrahydrocyclopenta[c]pyrazole-3-carbonyl)piperidin-4-yl)acetamide] | 517 |
| CC(=O)NC1CCN(C(=O)c2nn(CC[C@H]3CC[C@@H](Oc4ccccc4Cl)CC3)c3c2CCC3)CC1 [Example 70, N-[1-[1-[2-[4-(2-chlorophenoxy)cyclohexyl]ethyl]-5,6-dihydro-4H-cyclopenta[c]pyrazole-3-carbonyl]-4-piperidyl]acetamide] | 161 |
| CC(=O)NC1CCN(C(=O)c2nn(CC[C@H]3CC[C@@H](Oc4ncccc4C)CC3)cc2C2CC2)CC1 [Example 74, N-(1-(4-cyclopropyl-1-(2-((1s,4s)-4-((3-methylpyridin-2-yl)oxy)cyclohexyl)ethyl)-1H-pyrazole-3-carbonyl)piperidin-4-yl)acetamide] | 178 |
| CC(=O)NC1CCN(C(=O)c2nn(C[C@@H]3C[C@@H](Oc4ccc(Cl)cn4)CCO3)c3c2CC(F)(F)CC3)CC1 [Example 77, 6-{3-[4-(acetylamino)piperidine-1-carbonyl]-5,5-difluoro-4,5,6,7-tetrahydro-1H-indazol-1-yl}-1,5-anhydro-3-O-(5-chloropyridin-2-yl)-2,4,6-trideoxy-D-erythro-hexitol] | 136 |
